Measurements: paper PMC5235360 (Biochemistry, 2016)

Biological target: bsLDH (Geobacillus stearothermophilus, UniProt P00344)
Type: binding

Chain of bsLDH (P00344 whole entry): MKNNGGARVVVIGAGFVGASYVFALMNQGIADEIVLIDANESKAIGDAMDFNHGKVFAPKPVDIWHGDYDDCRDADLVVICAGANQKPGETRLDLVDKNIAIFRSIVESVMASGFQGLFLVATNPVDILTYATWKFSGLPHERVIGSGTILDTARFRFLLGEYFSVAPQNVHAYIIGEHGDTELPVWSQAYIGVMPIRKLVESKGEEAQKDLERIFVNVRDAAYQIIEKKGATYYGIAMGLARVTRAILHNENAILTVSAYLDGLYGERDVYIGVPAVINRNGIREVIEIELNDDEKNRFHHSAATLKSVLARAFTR

- Kd: 1300 ± 700 nM
Structure (SMILES): NC(=O)C1=CN([C@@H]2O[C@H](COP(=O)(O)OP(=O)(O)OC[C@H]3O[C@@H](n4cnc5c(N)ncnc54)[C@H](O)[C@@H]3O)[C@@H](O)[C@H]2O)C=CC1 [NADH]
